Common to all, as to type: biochemical
Assay [1] addresses cathepsin S (Homo sapiens, UniProt P25774). Kind of assay: Inhibitory activity assay against cathepsin S (enzyme assay). To be noted: Z-Phe-Arg-AMC 70 μM, enzyme 3 nM, pH 6.5, 45 minutes. As for the experimental part: In order to measure the enzyme activity of cathepsin S, a buffer solution (pH 6.5) consisting of 50 mM MES, 2.5 mM DTT, 1.0 mM EDTA, 0.001% bovine serum albumin (BSA), and 10% DMSO was prepared. The substrate, the test material, and the enzyme were mixed in the buffer solution in a predetermined concentration. The Z-Phe-Arg-AMC substrate was used in the final concentration of 70 μM. The test material was used in the final concentrations of 10.0 μM, 3.33 μM, 1.11 μM, 0.370 μM, 0.123 μM, 0.0412 μM, 0.0137 μM, 0.00457 μM, 0.00152 μM, and 0.000508 μM, respectively. The cathepsin S enzyme was used in the final concentration of 3 nM. The final volume of the enzyme reaction solution was 10 μL.
After reacting the mixture of substrate, test material, and enzyme for 45 minutes, the enzyme activity was measured with the EnVision (Perkin Elmer) microplate reader at an absorption wavelength of 340 nm and an emission wavelength of 460 nm. IC50 values were determined using 4-parameter logistic curve fit program of GraphPad Prism.

The target in assay [2] is cathepsin B (Homo sapiens, UniProt P07858). Kind of assay: Inhibitory activity assay against cathepsin B (enzyme assay). The note with it: Z-Arg-Arg-AMC 40 μM, enzyme 1 nM, pH 6.0, 90 minutes. As for the experimental part:
In order to measure the enzyme activity of cathepsin B, a buffer solution (pH 6.0) consisting of 50 mM MES, 5 mM DTT, 2.5 mM EDTA, 0.005% Polysorbate 20, and 10% DMSO was prepared. The substrate, the test material, and the enzyme were mixed in the buffer solution in a predetermined concentration. The Z-Arg-Arg-AMC substrate was used in the final concentration of 40 μM. The test material was used in the final concentrations of 10.0 μM, 3.33 μM, 1.11 μM, 0.370 μM, 0.123 μM, 0.0412 μM, 0.0137 μM, 0.00457 μM, 0.00152 μM, and 0.000508 μM, respectively. The cathepsin B enzyme was used in the final concentration of 1 nM. The final volume of the enzyme reaction solution was 10 μL. After reacting the mixture of substrate, test material, and enzyme for 90 minutes, the enzyme activity was measured with the EnVision (Perkin Elmer) microplate reader at an absorption wavelength of 340 nm and an emission wavelength of 460 nm. IC50 values were determined using 4-parameter logistic curve fit program of GraphPad Prism.

For assay [3], the target named is T1, cathepsin K (Homo sapiens, UniProt P43235).
T1 sequence (P43235 115-329): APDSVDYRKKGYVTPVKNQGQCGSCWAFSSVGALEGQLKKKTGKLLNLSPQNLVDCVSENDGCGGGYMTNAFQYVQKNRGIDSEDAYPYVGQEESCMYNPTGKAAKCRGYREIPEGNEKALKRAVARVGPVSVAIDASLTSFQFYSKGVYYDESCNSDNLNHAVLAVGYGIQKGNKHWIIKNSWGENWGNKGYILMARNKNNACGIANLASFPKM
Put plainly: Inhibitory activity assay against cathepsin K (enzyme assay). The note with it: Z-Phe-Arg-AMC 10 μM, enzyme 1 nM, pH 5.5, 30 minutes. The procedure, abridged:
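Fluorogenic assay with 1 nM cathepsin K and 10 μM Z-Phe-Arg-AMC in pH 5.5 buffer (50 mM MES, 2 mM DTT, 2.5 mM EDTA, 0.01% Triton X-100, 10% DMSO). Ten compound concentrations, 10.0 to 0.000508 μM; 30 min reaction, ex 355/em 460 nm; IC50 by 4-parameter logistic fit.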

Assay [4] deals with cathepsin L (Homo sapiens, UniProt P07711). Kind of assay: Inhibitory activity assay against cathepsin L (enzyme assay). To be noted: Z-Phe-Arg-AMC 2 μM, enzyme 3 nM, pH 5.5, 30 minutes. As for the experimental part:
In order to measure the enzyme activity of cathepsin L, a buffer solution (pH 5.5) consisting of 50 mM MES, 2.5 mM DTT, 2.5 mM EDTA, 0.005% Polysorbate 20, and 10% DMSO was prepared. The substrate, the test material, and the enzyme were mixed in the buffer solution in a predetermined concentration. The Z-Phe-Arg-AMC substrate was used in the final concentration of 2 μM. The test material was used in the final concentrations of 10.0 μM, 3.33 μM, 1.11 μM, 0.370 μM, 0.123 μM, 0.0412 μM, 0.0137 μM, 0.00457 μM, 0.00152 μM, and 0.000508 μM, respectively. The cathepsin L enzyme was used in the final concentration of 3 nM. The final volume of the enzyme reaction solution was 10 μL. After reacting the mixture of substrate, test material, and enzyme for 30 minutes, the enzyme activity was measured with the EnVision (Perkin Elmer) microplate reader at an absorption wavelength of 340 nm and an emission wavelength of 460 nm. IC50 values were determined using 4-parameter logistic curve fit program of GraphPad Prism.

Broadly, the IC50 is the concentration that gives 50% inhibition.

Chain of cathepsin L (P07711 114-333, species assumed): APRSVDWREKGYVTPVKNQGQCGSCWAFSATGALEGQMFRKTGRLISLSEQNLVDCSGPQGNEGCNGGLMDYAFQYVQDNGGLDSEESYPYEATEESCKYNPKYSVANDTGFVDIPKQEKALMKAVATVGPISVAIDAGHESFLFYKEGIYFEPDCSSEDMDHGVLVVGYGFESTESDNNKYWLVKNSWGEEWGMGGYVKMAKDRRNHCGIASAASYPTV
Chain of cathepsin S (P25774 115-331, species assumed): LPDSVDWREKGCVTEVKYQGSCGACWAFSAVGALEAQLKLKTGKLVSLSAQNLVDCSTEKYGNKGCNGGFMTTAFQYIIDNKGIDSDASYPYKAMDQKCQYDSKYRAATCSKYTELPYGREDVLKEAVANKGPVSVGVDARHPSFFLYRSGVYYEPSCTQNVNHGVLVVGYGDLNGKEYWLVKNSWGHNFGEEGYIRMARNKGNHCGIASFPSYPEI

As to `Cc1ccc(C)c(NC(=O)NC2(c3ccnc(C#N)n3)CCCC2)c1` [Example 50, 1-(1-(2-cyanopyrimidin-4-yl)cyclopentyl)-3-(2,5-dimethylphenyl)urea], the IC50 in assay [1] is greater than 10000 nM; in assay [2], greater than 10000 nM; in assay [3] it was 4.3 nM; in assay [4] it was 2670 nM.
As for `CC(NC(=O)NC1(c2ccnc(C#N)n2)CCCC1)c1ccccc1` (stereo not shown) [Example 51, 1-(1-(2-cyanopyrimidin-4-yl)cyclopentyl)-3-(1-phenylethyl)urea], the IC50 in assay [1] is greater than 10000 nM; in assay [2], greater than 10000 nM; in assay [3] it was 38.8 nM; in assay [4], 4170 nM.
`N#Cc1nccc(C2(NC(=O)NCc3ccc(F)cc3)CCCC2)n1` [Example 54, 1-(1-(2-cyanopyrimidin-4-yl)cyclopentyl)-3-(4-fluorobenzyl)urea]: the IC50 in assay [1] was greater than 10000 nM; in assay [2] it was greater than 10000 nM; in assay [3] it was 76 nM; in assay [4], greater than 10000 nM.
As to `N#Cc1nccc(C2(NC(=O)NCc3cccc4ccccc34)CCCC2)n1` [Example 55, 1-(1-(2-cyanopyrimidin-4-yl)cyclopentyl)-3-(naphthalen-1-ylmethyl)urea], the IC50 in assay [1] is greater than 10000 nM; in assay [2], 5660 nM; in assay [3], 19.5 nM; in assay [4], greater than 10000 nM.
As for `N#Cc1nccc(C2(NC(=O)NCc3ccccc3C(F)(F)F)CCCC2)n1` [Example 56, 1-(1-(2-cyanopyrimidin-4-yl)cyclopentyl)-3-(2-(trifluoromethyl)benzyl)urea], the IC50 in assay [1] was greater than 10000 nM; in assay [2], greater than 10000 nM; in assay [3] it was 101 nM; in assay [4] it was greater than 10000 nM.
As to `N#Cc1nccc(C2(NC(=O)Nc3cccc(C(F)(F)F)c3)CCCC2)n1` [Example 60, 1-(1-(2-cyanopyrimidin-4-yl)cyclopentyl)-3-(3-(trifluoromethyl)phenyl)urea], the IC50 in assay [1] is greater than 10000 nM; in assay [2] it was 8780 nM; in assay [3] it was 21.6 nM; in assay [4], greater than 10000 nM.
With `Cc1ccc(NC(=O)NC2(c3ccnc(C#N)n3)CCCC2)cc1C` [Example 62, 1-(1-(2-cyanopyrimidin-4-yl)cyclopentyl)-3-(3,4-dimethylphenyl)urea], the IC50 is greater than 10000 nM in assay [1], greater than 10000 nM in assay [2], 83.7 nM in assay [3] and greater than 10000 nM in assay [4].
On to `Cc1cc(C)cc(NC(=O)NC2(c3ccnc(C#N)n3)CCCC2)c1` [Example 63, 1-(1-(2-cyanopyrimidin-4-yl)cyclopentyl)-3-(3,5-dimethylphenyl)urea], for which the concentration for half-maximal inhibition (IC50) was greater than 10000 nM in assay [1], greater than 10000 nM in assay [2], 64.3 nM in assay [3] and greater than 10000 nM in assay [4].
`Cc1cccc(NC(=O)NC2(c3ccnc(C#N)n3)CCCC2)c1C` [Example 64, 1-(1-(2-cyanopyrimidin-4-yl)cyclopentyl)-3-(2,3-dimethylphenyl)urea]: the IC50 is greater than 10000 nM in assay [1], 5890 nM in assay [2], 75.9 nM in assay [3] and 5510 nM in assay [4].
The corresponding values for `N#Cc1nccc(C2(NC(=O)Nc3cc(F)ccc3F)CCCC2)n1` [Example 65, 1-(1-(2-cyanopyrimidin-4-yl)cyclopentyl)-3-(2,5-difluorophenyl)urea] are greater than 10000 nM, greater than 10000 nM, 46.6 nM and greater than 10000 nM.
The corresponding values for `Cc1ccc(C(F)(F)F)cc1NC(=O)NC1(c2ccnc(C#N)n2)CCCC1` [Example 66, 1-(1-(2-cyanopyrimidin-4-yl)cyclopentyl)-3-(2-methyl-5-(trifluoromethyl)phenyl)urea] are greater than 10000 nM, greater than 10000 nM, 3.4 nM and greater than 10000 nM.
Turning to `N#Cc1nccc(C2(NC(=O)Nc3cc(F)ccc3C(F)(F)F)CCCC2)n1` [Example 67, 1-(1-(2-cyanopyrimidin-4-yl)cyclopentyl)-3-(5-fluoro-2-(trifluoromethyl)phenyl)urea], the IC50 was greater than 10000 nM in assay [1], greater than 10000 nM in assay [2], 64.6 nM in assay [3] and greater than 10000 nM in assay [4].
On to `N#Cc1nccc(C2(NC(=O)Nc3cccc4ccccc34)CCCC2)n1` [Example 74, 1-(1-(2-cyanopyrimidin-4-yl)cyclopentyl)-3-(naphthalen-1-yl)urea], for which the IC50 in assay [1] is greater than 10000 nM; in assay [2], greater than 10000 nM; in assay [3], 27 nM; in assay [4], greater than 10000 nM.
For `N#Cc1nccc(C2(NC(=O)Nc3ccc4ccccc4c3)CCCC2)n1` [Example 75, 1-(1-(2-cyanopyrimidin-4-yl)cyclopentyl)-3-(naphthalen-2-yl)urea], the IC50 in assay [1] is greater than 10000 nM; in assay [2], greater than 10000 nM; in assay [3], 41 nM; in assay [4], greater than 10000 nM.
As to `N#Cc1nccc(C2(NC(=O)Nc3ccc4nccnc4c3)CCCC2)n1` [Example 77, 1-(1-(2-cyanopyrimidin-4-yl)cyclopentyl)-3-(quinoxalin-6-yl)urea], the IC50 is greater than 10000 nM in assay [1], greater than 10000 nM in assay [2], 95.1 nM in assay [3] and greater than 10000 nM in assay [4].
With `N#Cc1nccc(C2(NC(=O)Nc3ccc4c(c3)OCO4)CCCC2)n1` [Example 78, 1-(benzo[d][1,3]dioxol-5-yl)-3-(1-(2-cyanopyrimidin-4-yl)cyclopentyl)urea], the IC50 in assay [1] is greater than 10000 nM; in assay [2], greater than 10000 nM; in assay [3] it was 51.8 nM; in assay [4], greater than 10000 nM.
Turning to `N#Cc1nccc(C2(NC(=O)Nc3ccc4c(c3)CCC4)CCCC2)n1` [Example 82, 1-(1-(2-cyanopyrimidin-4-yl)cyclopentyl)-3-(2,3-dihydro-1H-inden-5-yl)urea], the IC50 in assay [1] is greater than 10000 nM; in assay [2], 7610 nM; in assay [3], 54.5 nM; in assay [4], greater than 10000 nM.
Consider `N#Cc1nccc(C2(NC(=O)Nc3cc(C(F)(F)F)ccc3F)CCCC2)n1` [Example 83, 1-(1-(2-cyanopyrimidin-4-yl)cyclopentyl)-3-(2-fluoro-5-(trifluoromethyl)phenyl)urea], for which the half-inhibitory concentration (IC50) in assay [1] was greater than 10000 nM; in assay [2], greater than 10000 nM; in assay [3], 17 nM; in assay [4] it was greater than 10000 nM.
Turning to `Cc1ccc(C)c(NC(=O)NC2(c3ccnc(C#N)n3)CCC(C)(C)CC2)c1` [Example 84, 1-(1-(2-cyanopyrimidin-4-yl)-4,4-dimethylcyclohexyl)-3-(2,5-dimethylphenyl)urea], the IC50 in assay [1] is 1680 nM; in assay [2], greater than 10000 nM; in assay [3], 44.3 nM; in assay [4], 3410 nM.

(Values after patent US11299478B2, “2-cyanopyrimidin-4-yl carbamate or urea derivative or salt thereof, and pharmaceutical composition including same” (HANLIM PHARMACEUTICAL CO., LTD., priority 2018, dated 2022).)
